Data taken from PubChem BioAssay (NCI).
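Grown in 96-well plates, cells were treated for 48 hours with each compound at five concentrations. Insufficient inhibition: endpoint recorded as highest concentration tested. GI50 marks 50% less growth. TGI denotes the concentration required for complete inhibition of growth.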

Legend:
Experiment in all cases: DTP human tumour cell line panel, 48 h
BT-549 breast = test system: BT-549 breast
PC-3 prostate = test system: PC-3 prostate
SF-295 CNS = test system: SF-295 CNS
OVCAR-4 ovarian = test system: OVCAR-4 ovarian
MDA-MB-435 = test system: MDA-MB-435
MOLT-4 leukemia = test system: MOLT-4 leukemia
A549 NSCLC = test system: A549 NSCLC
NCI-H226 lung = test system: NCI-H226 lung
MALME-3M melanoma = test system: MALME-3M melanoma
RXF 393 renal = test system: RXF 393 renal
NCI-H522 lung = test system: NCI-H522 lung
RPMI-8226 leukemia = test system: RPMI-8226 leukemia
UO-31 renal = test system: UO-31 renal
U251 CNS = test system: U251 CNS
COLO 205 colon = test system: COLO 205 colon
OVCAR-5 ovarian = test system: OVCAR-5 ovarian
NCI-H23 lung = test system: NCI-H23 lung
UACC-257 melanoma = test system: UACC-257 melanoma
SR leukemia = test system: SR leukemia
CAKI-1 renal = test system: CAKI-1 renal
SNB-75 CNS = test system: SNB-75 CNS
SW-620 colon = test system: SW-620 colon
HCC-2998 colon = test system: HCC-2998 colon
HL-60(TB) leukemia = test system: HL-60(TB) leukemia
NCI-H460 lung = test system: NCI-H460 lung
OVCAR-8 ovarian = test system: OVCAR-8 ovarian
MDA-MB-231 breast = test system: MDA-MB-231 breast
MCF7 breast = test system: MCF7 breast
SN12C renal = test system: SN12C renal
HCT-116 colon = test system: HCT-116 colon
SK-OV-3 ovarian = test system: SK-OV-3 ovarian
ACHN renal = test system: ACHN renal
NCI/ADR-RES ovarian = test system: NCI/ADR-RES ovarian
M14 melanoma = test system: M14 melanoma
TK-10 renal = test system: TK-10 renal
HT29 colon = test system: HT29 colon
SK-MEL-5 melanoma = test system: SK-MEL-5 melanoma
A498 renal = test system: A498 renal
IGROV1 ovarian = test system: IGROV1 ovarian
UACC-62 melanoma = test system: UACC-62 melanoma
SF-539 CNS = test system: SF-539 CNS
K-562 leukemia = test system: K-562 leukemia
KM12 colon = test system: KM12 colon
SF-268 CNS = test system: SF-268 CNS
SNB-19 CNS = test system: SNB-19 CNS
786-0 renal = test system: 786-0 renal
CCRF-CEM leukemia = test system: CCRF-CEM leukemia
HCT-15 colon = test system: HCT-15 colon
OVCAR-3 ovarian = test system: OVCAR-3 ovarian
HOP-62 NSCLC = test system: HOP-62 NSCLC
T-47D breast = test system: T-47D breast
HS 578T breast = test system: HS 578T breast
DU-145 prostate = test system: DU-145 prostate
SK-MEL-28 melanoma = test system: SK-MEL-28 melanoma

For `COc1ccc(C(=O)c2sc3nc4c(cc3c2N)CCCC4)cc1OC`, the GI50 (BT-549 breast) was 2.68 µM, the TGI (BT-549 breast) was 8.25 µM and the GI50 (PC-3 prostate) was 2.97 µM. The TGI (PC-3 prostate) was 15 µM, the GI50 (SF-295 CNS) was 3.06 µM and the TGI (SF-295 CNS) was 13.5 µM. It also gave a GI50 (OVCAR-4 ovarian) of 3.48 µM, a TGI (OVCAR-4 ovarian) of 18.6 µM and a GI50 (MDA-MB-435) of 0.723 µM. The TGI (MDA-MB-435) was 5.76 µM, the GI50 (MOLT-4 leukemia) was 2.62 µM and the TGI (MOLT-4 leukemia) was 6.49 µM. It also gave a GI50 (A549 NSCLC) of 3.28 µM, a TGI (A549 NSCLC) of 12.9 µM and a GI50 (NCI-H226 lung) of 3.5 µM. The TGI (NCI-H226 lung) was 23 µM, the GI50 (MALME-3M melanoma) was 2.71 µM and the TGI (MALME-3M melanoma) was 14.8 µM. It also gave a GI50 (RXF 393 renal) of 3.41 µM, a TGI (RXF 393 renal) of 24.2 µM and a GI50 (NCI-H522 lung) of 1.52 µM. It also gave a TGI (NCI-H522 lung) of 5.53 µM, a GI50 (RPMI-8226 leukemia) of 2.31 µM and a TGI (RPMI-8226 leukemia) of 8.01 µM. It also gave a GI50 (UO-31 renal) of 3.04 µM, a TGI (UO-31 renal) of 13.8 µM and a GI50 (U251 CNS) of 3.03 µM. The TGI (U251 CNS) was 16.2 µM, the GI50 (COLO 205 colon) was 3.33 µM and the TGI (COLO 205 colon) was 10.1 µM. The GI50 (OVCAR-5 ovarian) was 14.1 µM, the TGI (OVCAR-5 ovarian) was 48.5 µM and the GI50 (NCI-H23 lung) was 2.64 µM. For the same molecule, the TGI (NCI-H23 lung) was 9.94 µM, the GI50 (UACC-257 melanoma) was 3.81 µM and the TGI (UACC-257 melanoma) was 14.9 µM. For the same molecule, the GI50 (SR leukemia) was 1.59 µM, the TGI (SR leukemia) was 17.8 µM and the GI50 (CAKI-1 renal) was 2.83 µM. For the same molecule, the TGI (CAKI-1 renal) was 13 µM, the GI50 (SNB-75 CNS) was 2.79 µM and the TGI (SNB-75 CNS) was 9.93 µM. The GI50 (SW-620 colon) was 4.15 µM, the TGI (SW-620 colon) was 26.9 µM and the GI50 (HCC-2998 colon) was 7.01 µM. The TGI (HCC-2998 colon) was 30.4 µM, the GI50 (HL-60(TB) leukemia) was 2.8 µM and the TGI (HL-60(TB) leukemia) was 7.62 µM. It also gave a GI50 (NCI-H460 lung) of 3.22 µM, a TGI (NCI-H460 lung) of 13.2 µM and a GI50 (OVCAR-8 ovarian) of 2.83 µM. The TGI (OVCAR-8 ovarian) was 9.88 µM, the GI50 (MDA-MB-231 breast) was 3.74 µM and the TGI (MDA-MB-231 breast) was 8.72 µM. For the same molecule, the GI50 (MCF7 breast) was 2.74 µM, the TGI (MCF7 breast) was 10.6 µM and the GI50 (SN12C renal) was 4.18 µM. It also gave a TGI (SN12C renal) of 48.5 µM, a GI50 (HCT-116 colon) of 3.78 µM and a TGI (HCT-116 colon) of 50.2 µM. The GI50 (SK-OV-3 ovarian) was 10 µM, the TGI (SK-OV-3 ovarian) was 47.6 µM and the GI50 (ACHN renal) was 6.58 µM. It also gave a TGI (ACHN renal) of 31.3 µM, a GI50 (NCI/ADR-RES ovarian) of 2.04 µM and a TGI (NCI/ADR-RES ovarian) of 6.67 µM. For the same molecule, the GI50 (M14 melanoma) was 2.83 µM, the TGI (M14 melanoma) was 11.5 µM and the GI50 (TK-10 renal) was 4.77 µM. The TGI (TK-10 renal) was 26.5 µM, the GI50 (HT29 colon) was 3.08 µM and the TGI (HT29 colon) was 15.9 µM. It also gave a GI50 (SK-MEL-5 melanoma) of 1.87 µM, a TGI (SK-MEL-5 melanoma) of 4.92 µM and a GI50 (A498 renal) of 1.83 µM. It also gave a TGI (A498 renal) of 9.43 µM, a GI50 (IGROV1 ovarian) of 4.75 µM and a TGI (IGROV1 ovarian) of 29.3 µM. For the same molecule, the GI50 (UACC-62 melanoma) was 1.99 µM, the TGI (UACC-62 melanoma) was 6.8 µM and the GI50 (SF-539 CNS) was 3.83 µM. It also gave a TGI (SF-539 CNS) of 25.7 µM, a GI50 (K-562 leukemia) of 0.946 µM and a TGI (K-562 leukemia) of 40.6 µM. The GI50 (KM12 colon) was 2.43 µM, the TGI (KM12 colon) was 15.5 µM and the GI50 (SF-268 CNS) was 5.56 µM. The TGI (SF-268 CNS) was 34.6 µM, the GI50 (SNB-19 CNS) was 7.06 µM and the TGI (SNB-19 CNS) was > 100 µM. For the same molecule, the GI50 (786-0 renal) was 4.01 µM, the TGI (786-0 renal) was 17 µM and the GI50 (CCRF-CEM leukemia) was 2.95 µM. For the same molecule, the TGI (CCRF-CEM leukemia) was 12.3 µM, the GI50 (HCT-15 colon) was 2.48 µM and the TGI (HCT-15 colon) was 21.2 µM. For the same molecule, the GI50 (OVCAR-3 ovarian) was 3.91 µM, the TGI (OVCAR-3 ovarian) was 24.4 µM and the GI50 (HOP-62 NSCLC) was 3.87 µM. It also gave a TGI (HOP-62 NSCLC) of 15.3 µM, a GI50 (T-47D breast) of 2.65 µM and a TGI (T-47D breast) of 8.95 µM. It also gave a GI50 (HS 578T breast) of 4.93 µM, a TGI (HS 578T breast) of 56.6 µM and a GI50 (DU-145 prostate) of 6.74 µM. For the same molecule, the TGI (DU-145 prostate) was 36.6 µM, the GI50 (SK-MEL-28 melanoma) was 2.95 µM and the TGI (SK-MEL-28 melanoma) was 14.8 µM.
